{"source": "patent US20220241314A1", "about": "“COMPOSITIONS AND METHODS FOR TREATMENT OF HEPATITIS B VIRUS INFECTION” (priority 2019, published 2022)", "molecules": {"B1": {"name": "poly-U/UC PAMP: ~100 nt PAMP motif from the HCV genome comprising 5′ppp and the poly U/UC region, recognized by RIG-I; formulated in liposome (nucleic acid)", "chain": "GGCCAUCCUGUUUUUUUCCCUUUUUUUUUUUCUUUUUUUUUUUUUUUUUUUUUUUUUUUUUUUUUUCUCCUUUUUUUUUCCUCUUUUUUUCCUUUUCUUUCCUUU", "modifications": "RNA, 5' {ppp}, backbone and methylation of C not given here; formulated in liposome", "notes": "~100 nt PAMP motif from the HCV genome comprising 5′ppp and the poly U/UC region, recognized by RIG-I; formulated in liposome"}}, "key": {"[1]": {"tested_on": "innate immune response genes", "experiment": "Innate immune gene mRNA expression (RT-qPCR)", "format": "cell-based, human", "settings": "HepG2-hNTCP cells, 24 and 72 hours"}, "HBV cccDNA": {"tested_on": "HBV cccDNA", "experiment": "Time-of-addition experiments on cccDNA synthesis", "format": "cell-based, HBV (Genotype D)", "settings": "for HBV cccDNA level: HepG2-hNTCP and dHepaRG", "procedure": "FIGS. 3A-3F illustrate that F7 and poly-U/UC PAMP suppress de novo HBV cccDNA synthesis. (3A) Upper: Infection and poly-U/UC PAMP treatment schedule. Cells were treated with 100 ng/ml of poly-U/UC PAMP either for 24 hours before (Pre), for 48 hours after HBV infection (Post), or for 72 hours (pre/post). At 3 dpi cells were harvested and Hirt extracts were prepared (3B) HepG2-hNTCP cells and (3C) dHepaRG cells were analyzed by Southern blot (upper) and RT-qPCR (lower). For RT-qPCR. anal sis, values from DMSO treated control were set to 100% respectively, and data are shown as mean±standard deviations (SD) percentage of cccDNA in control samples. ***P<0.005, and ns=non-significant. (3D) HBV infection and F7 treatment schedule. Cells were treated with F7 (10 μM) either for 24 hours before (Pre), 24 hours during the time of infection (Co), d8 hours after infection (Post), or 96 hours pre/co/post). At 3 Dpi, the cells were harvested and. Hirt extracts prepared HepG2-hNTCP (3E) and dHepaRG cells (3F). Upper panels show Southern blot analysis. Lower panels show or RT-qPCR analysis and percent of cccDNA remaining in treated cells compared to control DMS)-treated cells. Values from DMSO-treated control cultures were set to 100%. Data was presented as mean±standard deviations (SD), *P<0.01, **P<0.005, ***P<0.001, ****P<0.0001 and ns=non-significant. CsA served as a treatment control. For Southern blots the position of mass markers are indicated.\nTo further define inhibitory effect of F7 and poly-U/UC on cccDNA biosynthesis, time-of-addition experiments were conducted in HepG2-hNTCP and dHepaRG cells. For poly-U/UC PAMP, treatment for 24 hours pre-infection (pre-treatment), from 1 to 3 dpi (post-treatment), and from 24 hours pre-infection onward through 3 dpi (pre/post-treatment) were conducted (FIG. 3A). […]"}}, "note": "{ppp} = triphosphate"}
{"molecule": "O=C(Nc1ccc2nc(NC(=O)c3ccc4ccccc4c3)sc2c1)c1ccccc1", "note": "[F7, N-(6-benzamido-1,3-benzothiazol-2-yl)naphthalene-2-carboxamide]", "values": [{"measurement": "mRNA expression of innate immune response genes (IFNs, ISGs, IRF3-target genes)", "setting": "[1]", "result": "induced only IRF3-target gene expression"}, {"measurement": "HBV cccDNA level", "setting": "HBV cccDNA; F7 10 μM administered once pre or co-treatment, 3 dpi", "result": "little effect on HBV cccDNA level"}, {"measurement": "HBV cccDNA level", "setting": "HBV cccDNA; F7 10 μM administered post-infection or pre/co/post through 3 dpi", "result": "significant suppression of cccDNA levels"}]}
{"molecule": "B1", "values": [{"measurement": "mRNA expression of innate immune response genes (IFNs, ISGs, IRF3-target genes)", "setting": "[1]", "result": "induced type I and type III IFN and ISG expression"}, {"measurement": "synthesis of cccDNA", "setting": "HBV cccDNA; poly-U/UC PAMP 100 ng/ml pre-, post- and pre/post-treatment, HepG2-hNTCP and HepaRG cells, 3 dpi", "result": "uniformly significantly suppressed"}]}
